The text below walks through data of US10201519B2, “Stabilized pediatric suspension of carisbamate” (SK BIOPHARMACEUTICALS CO., LTD., priority 2007, dated 2019).

This data set in a line: solubility of carisbamate in water. It counts as physicochemical. To be noted: described as slightly soluble. The method, then:
Carisbamate has been problematic to formulate in an aqueous suspension because it is slightly soluble in water, i.e., more than 2 mg/ml, so that temperature changes can cause the carisbamate particles to dissolve in the aqueous suspension medium and then re-crystallize out on the remaining carisbamate crystals and change the size of the resulting crystals or re crystallize in a different polymorphic form. This change in crystal size or polymorphic form, e.g., from Form A to Form B, can cause an undesirable change in bioavailability of the suspension. The present invention is based in part on the discovery that the addition of hypromellose (hydroxypropyl methyl cellulose or HPMC) in the proper concentration will prevent or stabilize this crystal growth and therefore serve to stabilize the suspension maintaining bioavailability and improving shelf life of the product.

Broadly, the solubility is how much of the substance goes into solution per volume. Higher therefore signals much dissolved substance. `NC(=O)OC[C@@H](O)c1ccccc1Cl` [Carisbamate, S-(2-(2-chlorophenyl)-2-hydroxyethyl) oxocarboxamide]: the solubility is more than 2000 µg/mL.
